The text below walks through data of patent US6485953B1, “Enzyme capable of hydorlyzing plaque, microorganism producing the same, and a composition comprising the same” (Lifenza Co. Ltd., priority 1999, dated 2002).

Test [1] relates to dextranase activity of DXAMase. In words: Stability test: dextranase activity of DXAMase in presence of enzyme inhibitors and mouthwash chemicals. Format: biochemical, Lipomyces starkeyi KSM 22. How it is done: Dextranase activity is determined by measuring the amount of isomaltose produced by the reaction of an enzyme solution in a buffer solution containing 2% dextran for 15 min at 37° C. Dextranase 1 IU is defined as the amount of the enzyme that produces 1 μmol of isomaltose when reaction is carried out by using dextran as a substrate for 1 min at 37° C.
(§1) To test the stabilization of dextranase and amylase activities of DXAMase by chemicals comprising mouthwash solution, the enzyme activity was measured in the presence of the enzyme inhibitors and chemicals in the mouthwash solutions in Table 2. In 1 mL of each chemical solution, 5 IU of DXAMase was added and reacted for 5 min at 37° C. Reaction was further carried out by adding 2% dextran or starch of an equal volume.

In test [2] the test system is amylase activity of DXAMase. In words: Stability test: amylase activity of DXAMase in presence of enzyme inhibitors and mouthwash chemicals. Format: biochemical, Lipomyces starkeyi KSM 22. Here is the method:
Amylase activity is measured by reacting the enzyme solution in a buffer solution containing 2% starch for 15 min at 37° C.
as §1

[3] abbreviates: inhibitor concentration 10 mM, 5 IU DXAMase, 5 min at 37° C.

As to `[H]/N=C(\N/C(=N/[H])NCCCCCCNC(=N)NC(=N)Nc1ccc(Cl)cc1)Nc1ccc(Cl)cc1` [Chlorhexydine], in test [1] (5 IU DXAMase in 1 mL chemical solution, 5 min at 37° C.), the “effect on enzymatic activity of DXAMase (dextranase and amylase), in words” value is on record as “did not decrease”. In addition, the “Relative activity (%) Dextranase” value turned out to be 98% in test [1] (inhibitor concentration 0.01%), 98% in test [1] (inhibitor concentration 0.02%), 97% in test [1] (inhibitor concentration 0.05%) and 93% in test [1] (inhibitor concentration 0.1%). Besides, the “Relative activity (%) Amylase” value in test [2] (inhibitor concentration 0.01%) was determined as 98%; in test [2] (inhibitor concentration 0.02%) it was 97%; in test [2] (inhibitor concentration 0.05%), 97%; in test [2] (inhibitor concentration 0.1%), 96%.
As to `O=C(O)CN(CCN(CC(=O)O)CC(=O)O)CC(=O)O` [EDTA], in test [1] (setting [3]), the “Relative activity (%) Dextranase” value is on record as 100%. Further, in test [2] (setting [3]), the “Relative activity (%) Amylase” value was 100%.
On to `CCO` [Ethanol], for which the “Relative activity (%) Dextranase” value in test [1] (inhibitor concentration 1%) amounted to 99%; in test [1] (inhibitor concentration 5%) it was 98%; in test [1] (inhibitor concentration 10%), 98%; in test [1] (inhibitor concentration 20%), 97%. In addition, the “Relative activity (%) Amylase” value in test [2] (inhibitor concentration 1%) is 100%; in test [2] (inhibitor concentration 5%), 98%; in test [2] (inhibitor concentration 10%), 97%; in test [2] (inhibitor concentration 20%), 97%.
On to `F` [Fluoride], for which the “Relative activity (%) Dextranase” value in test [1] (inhibitor concentration 0.05%) is 94%. In test [2] (inhibitor concentration 0.05%), the “Relative activity (%) Amylase” value is reported as 91%.
Consider `CC(O)CO` (centres unmarked) [Propylene glycol], for which the “Relative activity (%) Dextranase” value in test [1] (inhibitor concentration 1%) is given as 100%. Besides, the “Relative activity (%) Amylase” value in test [2] (inhibitor concentration 1%) is 100%.
On to `CCCCCCCCCCCCOS(=O)(=O)[O-].[Na+]` [SDS], for which the “Relative activity (%) Dextranase” value in test [1] (inhibitor concentration 0.05%) is given as 91%; in test [1] (inhibitor concentration 0.5%), 85%. The figures for the “Relative activity (%) Amylase” value in test [2] (inhibitor concentration 0.05%) and in test [2] (inhibitor concentration 0.5%) were 92% and 68%, respectively.
For the compound `O=C([O-])c1ccccc1.[Na+]` [Sodium benzoate], in test [1] (inhibitor concentration 1%), the “Relative activity (%) Dextranase” value was found to be 100%. Further, the “Relative activity (%) Amylase” value in test [2] (inhibitor concentration 1%) was determined as 100%.
